Data from PubChem BioAssay AID256 (DTP/NCI, 2004).
Several values for one entry are separate records, joined by “and”; a condition that tells them apart may be missing. Equal values may be shown once. Toxic doses and inconclusive results are not listed.

Tested on: CD2F1 mice, L1210 leukemia ip, survival T/C
Test: NCI In Vivo Anticancer Drug Screen. Data for tumor model L1210 Leukemia (intraperitoneal) in CD2F1 (CDF1) mice
Conditions: higher = longer survival
Summary of the method: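 Implant tumor; dose compound or vehicle; measure endpoint in both groups; report treated divided by control.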

[1] = endpoint: mean survival time, dose: 3.12 mg/kg/injection, schedule: Q04DX003 (ip), vehicle: saline
[2] = endpoint: mean survival time, dose: 6.25 mg/kg/injection, schedule: Q04DX003 (ip), vehicle: saline
[3] = endpoint: mean survival time, dose: 12.5 mg/kg/injection, schedule: Q04DX003 (ip), vehicle: saline
[4] = endpoint: mean survival time, dose: 25.0 mg/kg/injection, schedule: Q04DX003 (ip), vehicle: saline
[5] = endpoint: mean survival time, dose: 100.0 mg/kg/injection, schedule: Q01DX001 (ip), vehicle: saline with Tween-80
[6] = endpoint: mean survival time, dose: 200.0 mg/kg/injection, schedule: Q01DX001 (ip), vehicle: saline with Tween-80
[7] = endpoint: mean survival time, dose: 100.0 mg/kg/injection, schedule: Q01DX009 (ip), vehicle: saline with Tween-80
[8] = endpoint: mean survival time, dose: 200.0 mg/kg/injection, schedule: Q01DX009 (ip), vehicle: saline with Tween-80
[9] = endpoint: mean survival time, dose: 100.0 mg/kg/injection, schedule: Q04DX003 (ip), vehicle: saline with Tween-80

O=CC(O)C(O)C(O)C(O)C(=O)O.[NH-]C1CCCCC1[NH-].[Pt+2] (stereo unspecified)
T/C (endpoint: mean survival time, dose: 0.78 mg/kg/injection, schedule: Q01DX005 (ip), vehicle: saline): 156 % of control
T/C (endpoint: mean survival time, dose: 1.56 mg/kg/injection, schedule: Q01DX005 (ip), vehicle: saline): 203 % of control
T/C (endpoint: mean survival time, dose: 1.56 mg/kg/injection, schedule: Q01DX009 (ip), vehicle: saline): 160 % of control
T/C (endpoint: mean survival time, dose: 3.12 mg/kg/injection, schedule: Q01DX005 (ip), vehicle: saline): 266 % of control
T/C [1]: 150 % of control
T/C (endpoint: mean survival time, dose: 3.13 mg/kg/injection, schedule: Q01DX009 (ip), vehicle: saline): 200 % of control
T/C (endpoint: mean survival time, dose: 6.25 mg/kg/injection, schedule: Q01DX005 (ip), vehicle: saline): 300 % of control
T/C (endpoint: mean survival time, dose: 6.25 mg/kg/injection, schedule: Q01DX009 (ip), vehicle: saline): 167 % of control
T/C [2]: 280 % of control
T/C (endpoint: mean survival time, dose: 12.5 mg/kg/injection, schedule: Q01DX005 (ip), vehicle: saline): 103 % of control
T/C [3]: 301 % of control
T/C [4]: 231 % of control and 259 % of control
T/C (endpoint: mean survival time, dose: 50.0 mg/kg/injection, schedule: Q04DX003 (ip), vehicle: saline): 108 % of control
T/C (endpoint: median survival time, dose: 1.02 mg/kg/injection, schedule: Q01DX009 (ip), vehicle: saline): 160 % of control and 170 % of control
T/C (endpoint: median survival time, dose: 1.37 mg/kg/injection, schedule: Q01DX009 (ip), vehicle: saline): 170 % of control and 180 % of control
T/C (endpoint: median survival time, dose: 1.56 mg/kg/injection, schedule: Q01DX009 (ip), vehicle: saline): 236 % of control
T/C (endpoint: median survival time, dose: 2.09 mg/kg/injection, schedule: Q01DX009 (ip), vehicle: saline): 189 % of control and 714 % of control
T/C (endpoint: median survival time, dose: 3.12 mg/kg/injection, schedule: Q01DX009 (ip), vehicle: saline): 188 % of control and 253 % of control and 261 % of control
T/C (endpoint: median survival time, dose: 6.25 mg/kg/injection, schedule: Q01DX009 (ip), vehicle: saline): 119 % of control
T/C (endpoint: median survival time, dose: 6.25 mg/kg/injection, schedule: Q04DX003 (ip), vehicle: saline): 101 % of control
T/C (endpoint: median survival time, dose: 12.5 mg/kg/injection, schedule: Q01DX009 (ip), vehicle: saline): 90 % of control
T/C (endpoint: median survival time, dose: 12.5 mg/kg/injection, schedule: Q04DX003 (ip), vehicle: saline): 100 % of control
T/C (endpoint: median survival time, dose: 12.5 mg/kg/injection, schedule: Q04DX003 (iv), vehicle: saline): 123 % of control
T/C (endpoint: median survival time, dose: 25.0 mg/kg/injection, schedule: Q04DX003 (ip), vehicle: saline): 103 % of control
T/C (endpoint: median survival time, dose: 50.0 mg/kg/injection, schedule: Q04DX003 (iv), vehicle: saline): 365 % of control
T/C (endpoint: median survival time, dose: 100.0 mg/kg/injection, schedule: Q04DX003 (ip), vehicle: saline): 113 % of control

CN(Cc1cnc2nc(N)nc(N)c2n1)c1ccc(C(=O)NC(CCC(=O)NC(CCC(=O)O)C(=O)O)C(=O)O)cc1 (stereo unspecified)
T/C (endpoint: mean survival time, dose: 2.5 mg/kg/injection, schedule: Q01DX009 (ip), vehicle: sodium bicarbonate): 165 % of control
T/C (endpoint: mean survival time, dose: 5.0 mg/kg/injection, schedule: Q01DX009 (ip), vehicle: sodium bicarbonate): 119 % of control
T/C (endpoint: mean survival time, dose: 10.0 mg/kg/injection, schedule: Q01DX009 (ip), vehicle: sodium bicarbonate): 89 % of control

Nc1ncnc2snnc12
T/C (endpoint: mean survival time, dose: 100.0 mg/kg/injection, schedule: Q01DX001 (ip), vehicle: Klucel (hydroxypropylcellulose) (HPC)): 100 % of control
T/C (endpoint: mean survival time, dose: 200.0 mg/kg/injection, schedule: Q01DX001 (ip), vehicle: Klucel (hydroxypropylcellulose) (HPC)): 96 % of control
T/C (endpoint: mean survival time, dose: 400.0 mg/kg/injection, schedule: Q01DX001 (ip), vehicle: Klucel (hydroxypropylcellulose) (HPC)): 100 % of control

OC1(c2ccccc2)c2cc(-c3ccccc3)c(-c3ccccc3)cc2C(c2ccccc2)(c2ccccc2)C1(O)c1ccccc1 (stereo unspecified)
T/C (endpoint: mean survival time, dose: 50.0 mg/kg/injection, schedule: Q01DX001 (ip), vehicle: saline with Tween-80): 96 % of control
T/C [5]: 96 % of control
T/C [6]: 96 % of control

Cc1cc(=O)c(C(=O)NC/C(C#N)=C\c2ccccc2)c(C)[nH]1
T/C (endpoint: mean survival time, dose: 100.0 mg/kg/injection, schedule: Q04DX002 (ip), vehicle: saline with Tween-80): 93 % of control
T/C (endpoint: mean survival time, dose: 400.0 mg/kg/injection, schedule: Q04DX002 (ip), vehicle: saline with Tween-80): 100 % of control

CSc1cccc(NC(=O)OCCOc2ccc(NC(C)=O)cc2)c1
T/C [7]: 101 % of control
T/C [8]: 97 % of control
T/C (endpoint: mean survival time, dose: 400.0 mg/kg/injection, schedule: Q01DX009 (ip), vehicle: saline with Tween-80): 93 % of control

C#CC(OC(=O)Nc1ccccc1)C1OC2OC(C)(C)OC2C2OC(C)(C)OC12 (stereo unspecified)
T/C (endpoint: mean survival time, dose: 50.0 mg/kg/injection, schedule: Q01DX009 (ip), vehicle: saline with Tween-80): 97 % of control
T/C [7]: 93 % of control
T/C [8]: 97 % of control

O=C(NCCN1CC1)c1ccccc1C(=O)NCCN1CC1
T/C (endpoint: mean survival time, dose: 25.0 mg/kg/injection, schedule: Q04DX003 (ip), vehicle: saline with Tween-80): 105 % of control
T/C (endpoint: mean survival time, dose: 50.0 mg/kg/injection, schedule: Q04DX003 (ip), vehicle: saline with Tween-80): 100 % of control
T/C (endpoint: mean survival time, dose: 100.0 mg/kg/injection, schedule: Q01DX001 (ip), vehicle: saline): 110 % of control
T/C [9]: 117 % of control
T/C (endpoint: mean survival time, dose: 200.0 mg/kg/injection, schedule: Q01DX001 (ip), vehicle: saline): 164 % of control

COC1=CCC(OC)=C(C)C1
T/C [9]: 93 % of control

CN(C)CCN(C)C
T/C (endpoint: mean survival time, dose: 100.0 mg/kg/injection, schedule: Q01DX009 (ip), vehicle: saline): 96 % of control
T/C (endpoint: mean survival time, dose: 400.0 mg/kg/injection, schedule: Q01DX009 (ip), vehicle: saline): 106 % of control

[Br][Ni][Br].[NH-]CC[NH-].[NH-]CC[NH-]
T/C (endpoint: mean survival time, dose: 25.0 mg/kg/injection, schedule: Q04DX002 (ip), vehicle: saline with Tween-80): 104 % of control
T/C (endpoint: mean survival time, dose: 50.0 mg/kg/injection, schedule: Q04DX002 (ip), vehicle: saline with Tween-80): 110 % of control

CCCNC1=C(C)C(=O)C2=C(C1=O)[C@@H](COC(N)=O)[C@]1(O)[C@H]3[C@@H](CN21)N3C (stereo partly specified)
T/C (endpoint: mean survival time, dose: 1.5 mg/kg/injection, schedule: Q01DX001 (ip), vehicle: water): 98 % of control and 103 % of control
T/C (endpoint: mean survival time, dose: 3.0 mg/kg/injection, schedule: Q01DX001 (ip), vehicle: water): 97 % of control and 103 % of control
T/C (endpoint: mean survival time, dose: 6.0 mg/kg/injection, schedule: Q01DX001 (ip), vehicle: water): 98 % of control and 101 % of control
T/C (endpoint: mean survival time, dose: 12.0 mg/kg/injection, schedule: Q01DX001 (ip), vehicle: water): 98 % of control and 103 % of control
T/C (endpoint: mean survival time, dose: 24.0 mg/kg/injection, schedule: Q01DX001 (ip), vehicle: water): 97 % of control and 101 % of control
T/C (endpoint: mean survival time, dose: 50.0 mg/kg/injection, schedule: Q01DX001 (ip), vehicle: distilled water + Tween-80): 100 % of control
T/C (endpoint: mean survival time, dose: 100.0 mg/kg/injection, schedule: Q01DX001 (ip), vehicle: distilled water + Tween-80): 108 % of control

OCC1OC(c2nnc3c4ccccc4cnn23)C(O)C1O (stereo unspecified)
T/C (endpoint: mean survival time, dose: 10.94 mg/kg/injection, schedule: Q01DX005 (ip), vehicle: water): 100 % of control
T/C (endpoint: mean survival time, dose: 11.25 mg/kg/injection, schedule: Q01DX005 (ip), vehicle: water): 96 % of control
T/C (endpoint: mean survival time, dose: 21.88 mg/kg/injection, schedule: Q01DX005 (ip), vehicle: water): 94 % of control
T/C (endpoint: mean survival time, dose: 22.5 mg/kg/injection, schedule: Q01DX005 (ip), vehicle: water): 94 % of control
T/C (endpoint: mean survival time, dose: 43.75 mg/kg/injection, schedule: Q01DX005 (ip), vehicle: water): 93 % of control
T/C (endpoint: mean survival time, dose: 45.0 mg/kg/injection, schedule: Q01DX005 (ip), vehicle: water): 90 % of control
T/C (endpoint: mean survival time, dose: 87.5 mg/kg/injection, schedule: Q01DX005 (ip), vehicle: water): 94 % of control
T/C (endpoint: mean survival time, dose: 90.0 mg/kg/injection, schedule: Q01DX005 (ip), vehicle: water): 96 % of control
T/C (endpoint: mean survival time, dose: 175.0 mg/kg/injection, schedule: Q01DX005 (ip), vehicle: water): 93 % of control
T/C (endpoint: mean survival time, dose: 180.0 mg/kg/injection, schedule: Q01DX005 (ip), vehicle: water): 94 % of control

Cc1cc(N)c(S(=O)(=O)NO)cc1Cl
T/C [5]: 96 % of control
T/C [6]: 96 % of control
T/C (endpoint: mean survival time, dose: 400.0 mg/kg/injection, schedule: Q01DX001 (ip), vehicle: saline with Tween-80): 102 % of control

CN(C)S(=O)(=O)C1(c2ccccc2)CCCC1
T/C [9]: 102 % of control
T/C (endpoint: mean survival time, dose: 200.0 mg/kg/injection, schedule: Q04DX003 (ip), vehicle: saline with Tween-80): 105 % of control
T/C (endpoint: mean survival time, dose: 400.0 mg/kg/injection, schedule: Q04DX003 (ip), vehicle: saline with Tween-80): 100 % of control

[Cl][Pt+2][Cl].[NH-]CC(C[NH-])(Cc1ccccc1)Cc1ccccc1
T/C [1]: 97 % of control
T/C [2]: 103 % of control and 111 % of control
T/C [3]: 115 % of control and 111 % of control
T/C [4]: 115 % of control
T/C (endpoint: mean survival time, dose: 200.0 mg/kg/injection, schedule: Q04DX003 (ip), vehicle: saline): 172 % of control
